# Data reported in PMC4640066 (Nature Communications, 2015).
# Columns and labels:
# [1] = system: HeLa cells; assay: Analysis of interphase MT network; format: cell-based, human; details: 100 μM, 2.5 h
# Procedure: HeLa cells were cultured in DMEM containing 10% FBS in a humidified atmosphere containing 5% CO2. After treatment with each compound for 2.5 h (interphase MT network) or 5 h (mitotic spindle), the cells were immediately fixed with cold MeOH (−20 °C). After blocking with PBS containing 0.5% bovine serum albumin, cells were incubated with anti-α-tubulin antibodies (1:500 dilution, Santa Cruz, Cat# sc-32293) to observe interphase cells, or with anti-BubR1 (1:250 dilution, BD Bioscience, Cat# 612502) and anti-α-tubulin (1:250 dilution, MBL, Cat# PM054) antibodies to observe mitotic spindle. After staining with Alexa^488-conjugated anti-mouse IgG (1:2,000 dilution, Invitrogen, Cat#A11001) and Alexa568-conjugated anti-rabbit IgG (1:2000 dilution, Invitrogen, Cat#A11011), cells were washed four times with PBS and mounted with PBS containing 0.1 μg ml^−1 DAPI. MTs and BubR1 signals were observed under a Leica LAS AF 6000 fluorescence microscope (Leica Microsystems) or an LSM 700 laser-scanning confocal microscope (Zeiss).
# [2] = system: HeLa cells; assay: γ-Tubulin localization on centrosomes; format: cell-based, human; details: interphase and mitotic HeLa cells, 6 h
# Procedure: Supplementary Figure 8. Impact of gatastatin on γ-tubulin localization in HeLa cells (a-d) γ-Tubulin localization on centrosome in gatastatin treated HeLa cells. (a) Gatatstatin-treated interphase cells (for 6 h) were analyzed. Red, green and blue in the merged image represent pericentrin, γ-tubulin and DNA, respectively. Scale bar, 5 µm. (b) The γ-tubulin signal around pericentrin in (a) was calculated using ImageJ software from 250 (control) and 166 (gatastatin) centrosomes. Error bars represent S.D. Two-tailed, un-paired Student’s t-test was used to obtain P values. (c) Gatatstatin-treated mitotic cells (for 6 h) were analyzed. Red, green and blue in the merged image represent pericentrin, γ-tubulin and DNA, respectively.
# Scale bar, 5 µm. (d) The γ-tubulin signal on pericentrin in (c) was calculated using ImageJ software from 59 (control) and 98 (gatastatin) centrosomes. Error bars represent S.D. Two-tailed, un-paired Student’s t-test was used to obtain P values. γ-Tubulin and pericentrin antibodies were purchased from Sigma (GTU-88, Cat# T6557) and Abcam (Cat# ab4448), respectively.
# (1 picture or pasted object on this page, not shown here)
# [3] = target: T1, human γ-tubulin (Homo sapiens, UniProt P23258); assay: Inhibition of GTP binding of γ-tubulin (α-[32P]-GTP crosslinking assay); details: 60 μM compound; 70 nM γ-tubulin, 100 nM α-[32P]-GTP; mean±s.d.
# T1 construct: myc (C); 6His (C); made in house; host or cells: Sf21 insect cells (baculovirus)
# Procedure: For analysis of the effect of drugs on GTP binding of γ-tubulin, 70 nM of purified human γ-tubulin in GTP-binding buffer (50 mM MES, 5 mM MgCl2, 1 mM EGTA, pH 6.6) was incubated with or without compounds for 15 min at 20 °C. A final concentration of 100 nM of α-[^32P]-GTP was added and incubated at 20 °C for 30 min. After incubation, bound α-[^32P]-GTP was crosslinked to γ-tubulin for 60 s by illumination with a ultraviolet lamp using CL-1000 Ultraviolet Crosslinker. Protein with the crosslinked GTP was separated from unbound nucleotide by TCA precipitation and SDS–PAGE, and ^32P labelling was measured using a Typhoon FLA-7000 (General Electronic Company). Band intensities were quantified with the ImageJ software.
# [4] = system: HeLa cells; assay: MT nucleation (regrowth) assay, HeLa cells; format: cell-based, human; details: 30 μM, MT regrowth 1 min, EB1 area
# Procedure: HeLa and U2OS cells were cultured in DMEM+GlutaMAX (Gibco) supplemented with 10% fetal bovine serum (FBS), 100 U ml^−1 penicillin, 100 μg ml^−1 streptomycin and 1 mM sodium pyruvate in a humidified atmosphere containing 5% CO2. RPE-1 cells were cultured in DMEM/F-12 (Gibco) supplemented with 10% FBS, 2 mM L-glutamine, 100 U ml^−1 penicillin, 100 μg ml^−1 streptomycin, 1 mM sodium pyruvate containing 10% FBS in a humidified atmosphere containing 5% CO2.
# To depolymerize MTs, interphase cells were treated with 10 μM of nocodazole for 3 h, washed with cold medium and incubated on ice for 1 h. Mitotic cells were treated with 10 μM of STLC for 6 h, washed with cold medium and incubated on ice for 1 h. Subsequently, both cells were incubated in medium containing 1% DMSO or 30 μM of gatastatin for 10 min on ice. Cells were then put in warmed medium containing either 1% DMSO or 30 μM of gatastatin and were incubated at 37 °C (interphase cells) or 20 °C (mitotic cells) for 1 min. The cells were immediately fixed with cold MeOH (−20 °C).
# After blocking with PBS containing 0.5% bovine serum albumin, cells were incubated with anti-EB1 antibody (1:500 dilution, Abcam, Cat# ab53358), anti-α-tubulin antibody (1:500 dilution, Sigma, Cat# T9026) and anti-pericentrin antibody (1:2,000 dilution, Abcam, Cat# ab4448). […]
# T1 sequence (P23258 whole entry): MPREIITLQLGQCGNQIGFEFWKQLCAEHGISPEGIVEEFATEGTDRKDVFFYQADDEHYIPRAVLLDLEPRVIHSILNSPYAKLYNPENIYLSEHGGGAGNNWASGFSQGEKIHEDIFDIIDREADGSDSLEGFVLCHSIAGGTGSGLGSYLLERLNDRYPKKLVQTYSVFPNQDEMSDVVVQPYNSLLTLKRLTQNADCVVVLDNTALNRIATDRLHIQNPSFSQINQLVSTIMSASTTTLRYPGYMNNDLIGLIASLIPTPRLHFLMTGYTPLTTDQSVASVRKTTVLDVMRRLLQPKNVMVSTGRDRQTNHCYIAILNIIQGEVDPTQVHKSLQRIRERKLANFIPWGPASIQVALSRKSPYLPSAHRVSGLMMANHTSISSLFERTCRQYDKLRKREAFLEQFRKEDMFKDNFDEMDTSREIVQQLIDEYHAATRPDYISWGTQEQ
compound,measurement,setting,value
"COc1cc2c(=O)c(-c3cc(OC)c4c(c3OC)OCO4)coc2cc1OCc1ccccc1 [Gatastatin, O^7-demethylbenzyl AG1]",Effect on interphase MT network,[1],did not obviously change the appearance of the interphase MT network
same,γ-Tubulin localization to centrosomes,[2],not affected
same,GTP binding (control %),[3],6.7±3.7%
same,Effect on MT nucleation activity of interphase and mitotic centrosomes,[4],inhibited MT nucleation activity
